{"source": "patent US7678363B2", "about": "“Methods of treating psychiatric conditions comprising administration of muscarinic agents in combination with SSRIs” (priority 2005, dated 2010)", "key": {"[1]": {"test_system": "Human neural stem cells (hNSCs)", "test": "Neuronal differentiation of human neural stem cells (TUJ-1 staining)", "assay_type": "cell-based", "settings": "for EC50: read-out: EC50 for neuronal differentiation, agent alone", "experimental": "Mitogen-free test media with 5 μM DHEA served as a positive control for neuronal differentiation, and basal media without growth factors served as a negative control.\nThe presence of synergy was determined by use of a combination index (CI). […] The CI is a quantitative measure of the nature of drug interactions, comparing the EC50's of two compounds, when each is assayed alone, to the EC50 of each compound when assayed in combination. The combination index (CI) is equal to the following formula: […]\nwhere C1 and C2 are the concentrations of a first and a second compound, respectively, resulting in 50% activity in neuronal differentiation when assayed in combination; and IC1 and IC2 are the concentrations of each compound resulting in 50% activity when assayed independently."}, "[2]": {"settings": "clinical reports; cited from earlier work"}, "[3]": {"test_system": "KA, AMPA, and NMDA iGlu receptors", "settings": "cited from earlier work"}, "mGlu7 and mGlu8": {"test_system": "mGlu7 and mGlu8", "settings": "at higher concentrations (e.g., above 1 μM); cited from earlier work"}, "mGluR2": {"target": "mGluR2 (Homo sapiens, UniProt Q14416)", "sequence (Q14416 19-872)": "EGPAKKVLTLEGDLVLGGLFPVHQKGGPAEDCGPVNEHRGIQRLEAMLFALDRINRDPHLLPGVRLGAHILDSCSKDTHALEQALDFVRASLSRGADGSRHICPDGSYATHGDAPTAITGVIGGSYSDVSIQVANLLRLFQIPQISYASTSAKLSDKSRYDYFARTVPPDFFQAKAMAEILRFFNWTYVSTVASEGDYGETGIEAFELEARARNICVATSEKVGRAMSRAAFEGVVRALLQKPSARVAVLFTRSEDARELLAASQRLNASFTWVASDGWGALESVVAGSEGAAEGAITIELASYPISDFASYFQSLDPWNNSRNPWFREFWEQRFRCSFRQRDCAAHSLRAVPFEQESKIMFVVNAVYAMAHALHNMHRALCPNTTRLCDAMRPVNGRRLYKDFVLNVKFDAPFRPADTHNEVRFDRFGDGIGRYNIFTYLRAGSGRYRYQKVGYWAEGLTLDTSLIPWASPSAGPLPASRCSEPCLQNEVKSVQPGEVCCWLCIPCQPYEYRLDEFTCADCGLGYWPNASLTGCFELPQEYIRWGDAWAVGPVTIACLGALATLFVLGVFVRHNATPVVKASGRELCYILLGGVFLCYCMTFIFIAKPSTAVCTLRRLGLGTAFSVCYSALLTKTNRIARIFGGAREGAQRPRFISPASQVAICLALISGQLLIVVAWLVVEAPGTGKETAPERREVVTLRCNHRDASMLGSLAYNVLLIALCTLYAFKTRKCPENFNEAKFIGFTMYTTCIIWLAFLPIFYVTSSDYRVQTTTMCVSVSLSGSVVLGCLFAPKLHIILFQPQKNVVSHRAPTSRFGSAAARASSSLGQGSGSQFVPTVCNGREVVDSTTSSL", "settings": "antagonist; read-out: IC50 against mGluR2; cited from earlier work"}, "mGluR3": {"target": "mGluR3 (Homo sapiens, UniProt Q14832)", "sequence (Q14832 23-879)": "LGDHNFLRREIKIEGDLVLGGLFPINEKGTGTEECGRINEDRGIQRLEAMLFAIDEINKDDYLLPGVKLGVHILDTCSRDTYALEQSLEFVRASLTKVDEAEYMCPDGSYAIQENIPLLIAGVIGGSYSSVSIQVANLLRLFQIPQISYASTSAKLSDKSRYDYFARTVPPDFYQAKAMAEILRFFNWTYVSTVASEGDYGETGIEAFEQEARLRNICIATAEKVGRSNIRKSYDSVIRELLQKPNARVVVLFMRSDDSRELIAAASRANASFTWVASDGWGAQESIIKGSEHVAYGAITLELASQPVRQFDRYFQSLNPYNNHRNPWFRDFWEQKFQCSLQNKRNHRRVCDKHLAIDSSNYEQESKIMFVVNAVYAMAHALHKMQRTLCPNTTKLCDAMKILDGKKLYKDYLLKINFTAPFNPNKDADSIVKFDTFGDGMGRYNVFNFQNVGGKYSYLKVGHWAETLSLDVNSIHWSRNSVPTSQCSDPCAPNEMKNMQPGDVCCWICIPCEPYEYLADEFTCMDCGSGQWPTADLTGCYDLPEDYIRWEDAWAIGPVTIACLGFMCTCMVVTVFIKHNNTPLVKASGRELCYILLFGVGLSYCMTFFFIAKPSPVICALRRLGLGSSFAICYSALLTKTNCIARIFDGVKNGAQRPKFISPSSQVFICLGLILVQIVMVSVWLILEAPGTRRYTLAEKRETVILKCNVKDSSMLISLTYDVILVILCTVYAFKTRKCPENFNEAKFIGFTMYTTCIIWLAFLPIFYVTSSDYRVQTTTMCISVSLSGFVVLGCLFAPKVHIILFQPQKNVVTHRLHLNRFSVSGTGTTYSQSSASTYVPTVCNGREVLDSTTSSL", "settings": "antagonist; read-out: IC50 against mGluR3; cited from earlier work"}, "[4]": {"test_system": "Group I and Group III receptors", "settings": "at sub-mM concentrations; cited from earlier work"}, "human mGlu3": {"target": "human mGlu3 (Homo sapiens, UniProt Q14832)", "sequence (Q14832 23-879)": "as above", "settings": "read-out: EC50 against human mGlu3 receptors; agonist, in vitro; cited from earlier work"}, "human mGlu2": {"target": "human mGlu2 (Homo sapiens, UniProt Q14416)", "sequence (Q14416 19-872)": "as the sequence (Q14416 19-872) above", "settings": "read-out: EC50 against human mGlu2 receptors; agonist, in vitro; cited from earlier work"}, "[5]": {"settings": "not told; cited from earlier work"}, "[6]": {"test_system": "Human neural stem cells (hNSCs)", "test": "cells", "settings": "Neural stem cell, read-out: EC50 for astrocyte differentiation"}, "[7]": {"test_system": "Human neural stem cells (hNSCs)", "settings": "maximum of curve"}, "[8]": {"settings": "Homo sapiens, Neural stem cell, agent run independently, percentage of neuronal positive control, basal media values subtracted"}, "[9]": {"settings": "agent run independently, percentage of neuronal positive control, basal media values subtracted"}}, "note": "Where a name gives a salt, the structure may show the parent alone."}
{"smiles": "COC(=O)C(c1ccccc1)C1CCCCN1", "note": "(stereo not shown) [Ritalin, Methylphenidate hydrochloride]", "values": [{"measurement": "EC50", "setting": "[1]; Homo sapiens, Neural stem cell", "value": 3.5, "unit": "µM"}]}
{"smiles": "CNCCC(Oc1ccc(C(F)(F)F)cc1)c1ccccc1", "note": "(stereo not shown) [fluoxetine]", "values": [{"measurement": "reported side effects / dose limiting toxicities", "setting": "[2]", "value": "sexual dysfunction and (rarely) agitation and increased suicidal thoughts"}]}
{"smiles": "N[C@](CC1c2ccccc2Oc2ccccc21)(C(=O)O)[C@H]1C[C@@H]1C(=O)O", "note": "[LY341495, (2S)-2-amino-2-(1S,2S-2-carboxycycloprop-1-yl)-3-(xanth-9-yl)propanoic acid]", "values": [{"measurement": "activity against KA, AMPA, and NMDA iGlu receptors", "setting": "[3]", "value": "substantially inactive"}, {"measurement": "activity against mGlu7 and mGlu8", "setting": "mGlu7 and mGlu8", "value": "antagonist activity"}]}
{"smiles": "NC1(C(=O)O)CCc2cc(P(=O)(O)O)ccc21", "note": "(racemic) [APICA, (RS)-1-amino-5-phosphonoindan-1-carboxylic acid]", "values": [{"measurement": "IC50", "setting": "mGluR2", "value": "~30", "unit": "µM"}, {"measurement": "IC50", "setting": "mGluR3", "value": "~30", "unit": "µM"}, {"measurement": "activity against Group I or Group III receptors", "setting": "[4]", "value": "no appreciable activity"}]}
{"smiles": "CSc1ccc(C(=O)c2[nH]c(=O)[nH]c2C)cc1", "note": "[Enozimone, enoximone]", "values": [{"measurement": "EC50", "setting": "[1]; [8]", "value": 6.76, "unit": "µM"}]}
{"smiles": "NCC(CC(=O)O)c1ccc(Cl)cc1", "note": "(stereo not shown) [Baclofen]", "values": [{"measurement": "EC50", "setting": "[1]; Homo sapiens, Neural stem cell", "value": 3.6, "unit": "µM"}]}
{"smiles": "N[C@@]1(C(=O)O)CO[C@H]2[C@H](C(=O)O)[C@H]21", "note": "[LY379268, (−)-2-Oxa-4-aminobicyclohexane-4,6-dicarboxylic acid]", "values": [{"measurement": "EC50", "setting": "human mGlu3", "value": "< 0.01", "unit": "µM"}, {"measurement": "EC50", "setting": "human mGlu2", "value": "< 0.01", "unit": "µM"}]}
{"smiles": "C[C@H](CS)C(=O)N1CCC[C@H]1C(=O)O", "note": "[captopril]", "values": [{"measurement": "EC50", "setting": "[1]; [8]", "value": 3.78, "unit": "µM"}, {"measurement": "EC50", "setting": "[1]; [9]", "value": 2, "unit": "µM"}]}
{"smiles": "CNC(=O)Oc1ccc2c(c1)[C@]1(C)CCN(C)[C@@H]1N2C", "note": "(single isomer, unassigned) [Physostigmine, 1,2,3,3a,8,8a-hexahydro-1,3a,8-trimethyl-, methylcarbamate (ester) or (3aS,8aR)-pyrrolo(2,3-b)indol-5-ol]", "values": [{"measurement": "blood-brain barrier permeability", "setting": "[5]", "value": "capable of crossing the blood-brain barrier"}]}
{"smiles": "O=C1CC2(CCCC2)CC(=O)N1CCCCN1CCN(c2ncccn2)CC1", "note": "[buspirone]", "values": [{"measurement": "EC50", "setting": "[1]; Homo sapiens, Neural stem cell", "value": 8.4, "unit": "µM"}, {"measurement": "EC50", "setting": "[6]", "value": 5.7, "unit": "µM"}, {"measurement": "maximum astrocyte differentiation, % of the positive control", "setting": "[7]", "value": 60, "unit": "%"}]}
{"smiles": "Clc1ccc2c(c1)N=C(N1CCNCC1)c1ccccc1N2", "note": "[N-desmethylclozapine]", "values": [{"measurement": "neurogenic activity", "setting": "[1]; in assays as disclosed herein (not specified)", "value": "highly neurogenic"}]}
{"smiles": "COc1cc2c(cc1OC)C(=O)C(CC1CCN(Cc3ccccc3)CC1)C2", "note": "(stereo not shown) [donepezil, 2,3-dihydro-5,6-dimethoxy-2-((1-(phenylmethyl)-4-piperidinyl)methyl)-1H-inden-1-one]", "values": [{"measurement": "EC50", "setting": "[1]; agent run independently, percentage of neuronal positive control, basal media values subtracted, listed as Donepezil", "value": 2.02, "unit": "µM"}, {"measurement": "EC50", "setting": "[1]; [9]", "value": 4.7, "unit": "µM"}]}
{"smiles": "CN(CCOc1ccc(CC2SC(=O)NC2=O)cc1)c1ccccn1", "note": "(stereo not shown) [Rosiglitazone, rosiglitazone]", "values": [{"measurement": "EC50", "setting": "[1]; [8]", "value": 0.94, "unit": "µM"}]}
{"smiles": "Nc1c2c(nc3ccccc13)CCCC2", "note": "[Tacrine, tetrahydroaminoacridine]", "values": [{"measurement": "EC50", "setting": "[1]; [8]", "value": 8, "unit": "µM"}]}
